PubChem BioAssay AID248 (DTP/NCI, 2004)
Where “and” joins values, the source holds several entries; their conditions need not be identical. Equal entries are not always repeated. Inconclusive results and toxic doses are left out.

System: L1210 leukemia ip in BDF1 mice, survival T/C
Test: NCI In Vivo Anticancer Drug Screen. Data for tumor model L1210 Leukemia (intraperitoneal) in B6D2F1 (BDF1) mice
Settings: endpoint: mean survival time, higher = longer survival
Method in brief: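 In this screen, tumor-bearing mice given compound are compared to those given vehicle, and their survival values are reported as a treated-to-control quotient.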

[1] = dose: 100.0 mg/kg/injection, schedule: Q04DX003 (ip), vehicle: Klucel (hydroxypropylcellulose) (HPC)
[2] = dose: 200.0 mg/kg/injection, schedule: Q04DX003 (ip), vehicle: Klucel (hydroxypropylcellulose) (HPC)
[3] = dose: 400.0 mg/kg/injection, schedule: Q04DX003 (ip), vehicle: Klucel (hydroxypropylcellulose) (HPC)
[4] = dose: 100.0 mg/kg/injection, schedule: Q01DX009 (ip), vehicle: Klucel (hydroxypropylcellulose) (HPC)
[5] = dose: 200.0 mg/kg/injection, schedule: Q01DX009 (ip), vehicle: Klucel (hydroxypropylcellulose) (HPC)
[6] = dose: 400.0 mg/kg/injection, schedule: Q01DX009 (ip), vehicle: Klucel (hydroxypropylcellulose) (HPC)

## O=C1C(N2CCCCC2)=C(N2CC2)C(=O)C(N2CCCCC2)=C1N1CC1
dose: 0.39 mg/kg/injection, schedule: Q04DX003 (ip), vehicle: saline
  T/C: 94 % of control and 96 % of control
dose: 0.78 mg/kg/injection, schedule: Q04DX003 (ip), vehicle: saline
  T/C: 100 % of control and 103 % of control
dose: 1.56 mg/kg/injection, schedule: Q04DX003 (ip), vehicle: saline
  T/C: 103 % of control and 107 % of control
dose: 3.12 mg/kg/injection, schedule: Q04DX003 (ip), vehicle: saline
  T/C: 103 % of control and 107 % of control
dose: 6.25 mg/kg/injection, schedule: Q04DX003 (ip), vehicle: saline
  T/C: 96 % of control and 100 % of control
dose: 10.0 mg/kg/injection, schedule: Q01DX001 (ip), vehicle: saline
  T/C: 86 % of control
dose: 12.5 mg/kg/injection, schedule: Q04DX003 (ip), vehicle: saline
  T/C: 103 % of control and 122 % of control
dose: 20.0 mg/kg/injection, schedule: Q01DX001 (ip), vehicle: saline
  T/C: 99 % of control
dose: 35.0 mg/kg/injection, schedule: Q04DX003 (ip), vehicle: saline
  T/C: 101 % of control
dose: 40.0 mg/kg/injection, schedule: Q01DX001 (ip), vehicle: saline
  T/C: 93 % of control
dose: 55.0 mg/kg/injection, schedule: Q04DX003 (ip), vehicle: saline
  T/C: 90 % of control
dose: 80.0 mg/kg/injection, schedule: Q01DX001 (ip), vehicle: saline
  T/C: 108 % of control
dose: 80.0 mg/kg/injection, schedule: Q04DX003 (ip), vehicle: saline
  T/C: 88 % of control

## Clc1ccc2nncn2n1
dose: 50.0 mg/kg/injection, schedule: Q04DX003 (ip), vehicle: saline with Tween-80
  T/C: 97 % of control
dose: 100.0 mg/kg/injection, schedule: Q04DX003 (ip), vehicle: saline with Tween-80
  T/C: 100 % of control
dose: 200.0 mg/kg/injection, schedule: Q04DX003 (ip), vehicle: saline with Tween-80
  T/C: 100 % of control

## COC(C(=O)C(O)C(C)O)C1CC2C=C3C=C(OC4CC(OC5CC(O)C(OC)C(C)O5)C(OC(C)=O)C(C)O4)C(C)C(=O)C3=C(O)C2=C(O)C1OC1CC(OC2CC(OC3CC(C)(O)C(OC(=O)C(C)C)C(C)O3)C(O)C(C)O2)C(O)C(C)O1 (stereo not given)
dose: 0.25 mg/kg/injection, schedule: Q01DX001 (ip), vehicle: other
  T/C: 121 % of control
dose: 0.5 mg/kg/injection, schedule: Q01DX001 (ip), vehicle: other
  T/C: 113 % of control
dose: 1.0 micrograms/kg/injection, schedule: Q01DX009 (ip), vehicle: other
  T/C: 111 % of control
dose: 1.0 micrograms/kg/injection, schedule: Q01DX009 (ip), vehicle: saline
  T/C: 111 % of control
dose: 2.0 micrograms/kg/injection, schedule: Q01DX009 (ip), vehicle: other
  T/C: 105 % of control
dose: 2.0 micrograms/kg/injection, schedule: Q01DX009 (ip), vehicle: saline
  T/C: 117 % of control
dose: 4.0 micrograms/kg/injection, schedule: Q01DX009 (ip), vehicle: other
  T/C: 109 % of control
dose: 4.0 micrograms/kg/injection, schedule: Q01DX009 (ip), vehicle: saline
  T/C: 117 % of control
dose: 5.0 micrograms/kg/injection, schedule: Q01DX001 (ip), vehicle: saline
  T/C: 114 % of control
dose: 8.0 micrograms/kg/injection, schedule: Q01DX009 (ip), vehicle: other
  T/C: 121 % of control
dose: 10.0 micrograms/kg/injection, schedule: Q01DX001 (ip), vehicle: saline
  T/C: 123 % of control
dose: 16.0 micrograms/kg/injection, schedule: Q01DX009 (ip), vehicle: other
  T/C: 118 % of control
dose: 16.0 micrograms/kg/injection, schedule: Q01DX009 (ip), vehicle: saline
  T/C: 117 % of control
dose: 20.0 micrograms/kg/injection, schedule: Q01DX001 (ip), vehicle: saline
  T/C: 114 % of control
dose: 32.0 micrograms/kg/injection, schedule: Q01DX009 (ip), vehicle: saline
  T/C: 112 % of control
dose: 37.0 micrograms/kg/injection, schedule: Q01DX009 (ip), vehicle: other
  T/C: 110 % of control
dose: 40.0 micrograms/kg/injection, schedule: Q01DX001 (ip), vehicle: saline
  T/C: 120 % of control
dose: 62.5 micrograms/kg/injection, schedule: Q04DX003 (ip), vehicle: saline
  T/C: 107 % of control
dose: 80.0 micrograms/kg/injection, schedule: Q01DX001 (ip), vehicle: saline
  T/C: 103 % of control
dose: 125.0 micrograms/kg/injection, schedule: Q01DX001 (ip), vehicle: saline
  T/C: 151 % of control and 331 % of control
dose: 125.0 micrograms/kg/injection, schedule: Q04DX003 (ip), vehicle: saline
  T/C: 104 % of control
dose: 125.0 micrograms/kg/injection, schedule: Q08DX002 (ip), vehicle: saline
  T/C: 163 % of control
dose: 250.0 micrograms/kg/injection, schedule: Q01DX001 (ip), vehicle: saline
  T/C: 116 % of control and 198 % of control and 283 % of control

## CC(Cc1ccccc1)N(C)C(=O)CN1C(=O)c2ccccc2C1=O (stereo not given)
dose: 50.0 mg/kg/injection, schedule: Q01DX001 (ip), vehicle: saline
  T/C: 103 % of control
dose: 100.0 mg/kg/injection, schedule: Q01DX001 (ip), vehicle: saline
  T/C: 117 % of control
dose: 200.0 mg/kg/injection, schedule: Q01DX001 (ip), vehicle: saline
  T/C: 109 % of control
dose: 400.0 mg/kg/injection, schedule: Q01DX001 (ip), vehicle: saline
  T/C: 91 % of control

## CCCOC(=O)NNC(=O)OCCC
dose: 75.0 mg/kg/injection, schedule: Q01DX009 (ip), vehicle: Klucel (hydroxypropylcellulose) (HPC)
  T/C: 93 % of control

## Cc1oc2ccc(O)c(N=Nc3cccc([N+](=O)[O-])c3)c2c1C
[1]
  T/C: 97 % of control
[2]
  T/C: 101 % of control
[3]
  T/C: 109 % of control

## Cc1cccc(Nc2n[nH]c(=S)s2)c1
[4]
  T/C: 93 % of control
[5]
  T/C: 98 % of control
[6]
  T/C: 87 % of control

## Nc1c(S(=O)(=O)O)ccc2c1C(=O)c1ccccc1C2=O
dose: 100.0 mg/kg/injection, schedule: Q01DX009 (ip), vehicle: saline
  T/C: 90 % of control
dose: 100.0 mg/kg/injection, schedule: Q04DX003 (ip), vehicle: saline
  T/C: 101 % of control
dose: 200.0 mg/kg/injection, schedule: Q01DX009 (ip), vehicle: saline
  T/C: 97 % of control
dose: 200.0 mg/kg/injection, schedule: Q04DX003 (ip), vehicle: saline
  T/C: 96 % of control
dose: 400.0 mg/kg/injection, schedule: Q01DX009 (ip), vehicle: saline
  T/C: 92 % of control
dose: 400.0 mg/kg/injection, schedule: Q04DX003 (ip), vehicle: saline
  T/C: 91 % of control

## C=C(C)C1(CCCC)C(=O)NC(=O)NC1=O
dose: 75.0 mg/kg/injection, schedule: Q01DX001 (ip), vehicle: saline
  T/C: 104 % of control and 102 % of control
dose: 150.0 mg/kg/injection, schedule: Q01DX001 (ip), vehicle: saline
  T/C: 107 % of control and 100 % of control
dose: 300.0 mg/kg/injection, schedule: Q01DX001 (ip), vehicle: saline
  T/C: 102 % of control

## N=C1C(=O)C(=N)c2ccccc2-c2ccccc21
[4]
  T/C: 94 % of control
[5]
  T/C: 97 % of control
[6]
  T/C: 95 % of control

## c1ccc2c(CNC3CCCCC3)c[nH]c2c1
dose: 50.0 mg/kg/injection, schedule: Q01DX001 (ip), vehicle: carboxymethylcellulose (CMC)
  T/C: 90 % of control
[1]
  T/C: 90 % of control
[2]
  T/C: 97 % of control
[3]
  T/C: 98 % of control

## Nc1nc(N)nc(-c2ccc(NC(=O)c3ccccc3[N+](=O)[O-])cc2)n1
dose: 50.0 mg/kg/injection, schedule: Q04DX003 (ip), vehicle: Klucel (hydroxypropylcellulose) (HPC)
  T/C: 100 % of control
dose: 100.0 mg/kg/injection, schedule: Q01DX001 (ip), vehicle: Klucel (hydroxypropylcellulose) (HPC)
  T/C: 97 % of control
[1]
  T/C: 106 % of control
dose: 200.0 mg/kg/injection, schedule: Q01DX001 (ip), vehicle: Klucel (hydroxypropylcellulose) (HPC)
  T/C: 95 % of control
[2]
  T/C: 103 % of control

## CC(/C=N/NC(N)=O)=N\NC(N)=O
dose: 15.0 mg/kg/injection, schedule: Q01DX Z (ip), vehicle: saline
  T/C: 107 % of control
dose: 30.0 mg/kg/injection, schedule: Q01DX Z (ip), vehicle: saline
  T/C: 107 % of control
dose: 60.0 mg/kg/injection, schedule: Q01DX Z (ip), vehicle: saline
  T/C: 89 % of control
dose: 60.0 mg/kg/injection, schedule: Q01DX Z (oral), vehicle: saline
  T/C: 91 % of control
dose: 120.0 mg/kg/injection, schedule: Q01DX Z (oral), vehicle: saline
  T/C: 89 % of control
dose: 240.0 mg/kg/injection, schedule: Q01DX Z (oral), vehicle: saline
  T/C: 91 % of control
dose: 480.0 mg/kg/injection, schedule: Q01DX Z (oral), vehicle: saline
  T/C: 91 % of control

## CCn1c2ccccc2c2cc(NC(=O)N(CCCl)N=O)ccc21
dose: 177.0 mg/kg/injection, schedule: Q01DX009 (ip), vehicle: carboxymethylcellulose (CMC)
  T/C: 121 % of control
dose: 266.0 mg/kg/injection, schedule: Q01DX009 (ip), vehicle: carboxymethylcellulose (CMC)
  T/C: 188 % of control
